Experimental data as given in US5668157A, “Cyanoguanidines as K-channel blockers” (Pharmacia & Upjohn Company, priority 1996, dated 1997).

Key:
[1] = tested on: K^+ channel, rabbit mesenteric artery (RMA) rings; assay: Inhibition of pinacidil-induced relaxation of norepinephrine-contracted isolated rabbit mesenteric artery (RMA) rings (K^+ channel antagonism); type: cell-based; settings: Oryctolagus cuniculus, 0.25 h, pinacidil 1 μM, norepinephrine 5 μM, read-out: RMA K^+ Antagonism % I (percent inhibition of pinacidil relaxation at 15 minutes); for inhibition at 0.1 µM: conc. 0.1 μM; for inhibition at 0.3 µM: conc. 0.3 μM; for inhibition at 10 µM: conc. 10 μM
Protocol: The results for potassium channel blocking were obtained by using isolated rabbit mesenteric artery (RMA) procedures. Norepinephrine (5 μM) was used to contract the RMA rings twice, with an hour separating the two contractions. During this hour the tissues equilibrated in physiological salt solution at a resting tension of 1 gram. Upon the plateau of the second contraction 1 μM pinacidil was added to all tissues and the resulting relaxation time course was studied for thirty minutes. […] By studying the ability of the test compounds to inhibit this pinacidil-induced relaxation, the degree of potassium antagonism could be determined. The compounds were applied to the tissues for one hour between the two contractions and the pinacidil-induced relaxation was studied in the continuing presence of the compounds. Thus, the total time of pretreatment with the test compound was 75 minutes before the addition of pinacidil.
(§1) Data for K^+ channel antagonist activity on rabbit mesenteric artery (RMA) and natriuretic efficacy after […] (IP) administration to rats are collected in Table II.
^a Lowest inhibitor concentration (μM) that gave greater than 20%
inhibition or lowest concentration tested.
^b This is a measure of a compound's ability to inhibit the relaxatio
of norepinephrine (5 μM) contracted rabbit mesenteric artery rings by
pinacidil (1 μM). It is expressed as percent inhibition. Compounds wit
65% or greater inhibition at 5 μM are considered to be active, with
20-65% inhibition moderately active and with less than 20% inhibition

[2] = Diuretic screen: urinary Na^+ excretion after IP administration to rats; type: in vivo, rat (female Harlan Sprague-Dawley); settings: rat, IP, 5, 15 and 30 mg/kg, 5 hour test period
Protocol: as §1
The diuretic activity was determined in female Harlan Sprague-Dawley rats weighing 200 to 230 grams that were fasted 15 hours overnight, and then were deprived of both food and water for an additional hour prior to dosing. […] It approximates the area under the dose response curve. The vehicle was 20% dimethylacetamide (DMA; v/v) in a pH 7.4 phosphate buffer (0.58% Na2 HPO4 and 0.13% NaH2 PO4.H2 O). Sufficient drug was suspended in 1 to 2 ml of this vehicle to deliver doses of 5, 15 and 30 mg/kg in a volume of 0.5 ml (2-4 rats/dose). At least 2 vehicle control rats, and, for most tests, 2 standard diuretic treated rats were included in each experiment. Standards used as comparators included the K^+ retaining diuretic amiloride and the K^+ wasting diuretics furosemide, hydrochlorothiazide and metolazone.
Following their IP doses, the rats' urinary bladders were gently compressed to eliminate all pretreatment urine, and two identically treated rats were placed in a stainless steel metabolism cage equipped with a graduated test tube to collect voided urine. At 2 and 5 hours post treatment, the rats' bladders were again compressed, the volume of urine excreted by the pair of rats was recorded, and aliquots of urine were retained for analysis of Na^+ and K^+ concentrations with a NOVA-13 selective ion analyzer. Following the 5 hour urine collection, the rats were returned to their stock cages, and at least 1 week of recovery was allowed between a maximum of 3 diuretic tests.
The electrolyte concentrations detected in these urine samples were manually multiplied by their respective volumes to determine total milliequivalent (mEq) excretion of Na^+ and K^+ per pair of rats, and the results obtained with multiple racks per drug treatment were averaged. Increases in urinary Na^+ excretion of 50% or more above the pooled control tests were regarded as reflecting activity.
^c This represents the net increase (above control) in urinary
Na^+ excretion (μEq) for the 5 hour test period divided by the
total of the three drug doses (mg/kg) administered IP in the stage II
diuretic screen in rats. It approximates the area under the dose response

[3] = tested on: K^+ channel, rabbit mesenteric artery (RMA) rings; settings: pinacidil 1 μM, norepinephrine-contracted RMA rings; cited from earlier work

SMILES | 5 h Net Natriuretic Efficacy (net increase above control in urinary Na^+ excretion divided by total of three doses) [2] | inhibition at 10 µM [1] | also measured
N#CN=C(Nc1cnc(Cl)c(N)c1)NC1(c2ccccc2)CCC1 [Compound 1, N-(5-Amino-6-chloro-3-pyridyl)-N"-cyano-N'-(1-phenylcyclobutyl)guanidine] | 39 μEq Na^+ /mg/kg | – | inhibition at 0.1 µM [1]: 90%
Cc1nc(N)ccc1NC(=NC#N)NC1(c2ccccc2)CCC1 [Compound 2, N-(6-Amino-2-methyl-3-pyridyl)-N"-cyano-N'-(1-phenylcyclobutyl)guanidine, methanol solvate] | 77 μEq Na^+ /mg/kg | – | inhibition at 0.3 µM [1]: 96%
N#CN=C(Nc1cncc(N)c1)NC1(c2ccccc2)CCC1 [Compound 3, N-(5-Amino-3-pyridyl)-N"-cyano-N'-(1-phenylcyclobutyl)guanidine] | 50 μEq Na^+ /mg/kg | – | inhibition at 0.3 µM [1]: 93%
CN(C)c1ncccc1NC(=NC#N)NC1(c2ccccc2)CCC1 [Compound 4, N-[2-(Dimethylamino)-3-pyridyl]-N"-cyano-N'-(1-phenylcyclobutyl)guanidine] | 10 μEq Na^+ /mg/kg | – | inhibition at 2 µM ([1]; conc. 2.0 μM): 87%
C[C@@H](NC(=NC#N)Nc1cccnc1N(C)C)c1ccccc1 [Compound 5, (R)-N-[2-(Dimethylamino)-3-pyridyl]-N"-cyano-N'-(1-phenylethyl)guanidine] | 15 μEq Na^+ /mg/kg | – | inhibition at 5 µM ([1]; conc. 5 μM): 17.4%
CC[C@@H](N=C(NC#N)Nc1cccnc1Cl)c1ccccc1 [Compound 6, (R)-N-(2-chloro-3-pyridyl)-N'-cyano-N"-(1-phenylpropyl)guanidine] | 48 μEq Na^+ /mg/kg | – | inhibition at 0.1 µM [1]: 77.5%
N#CN=C(Nc1ccc(NCCF)nc1)NC1(c2ccccc2)CCC1 [Compound 7, N-[6(2-Fluoroethylamino)-3-pyridyl]-N"-cyano-N'-(1-phenylcyclobutyl)guanidine] | 60 μEq Na^+ /mg/kg | – | inhibition at 1 µM ([1]; conc. 1.0 μM): 24.3%
CC[C@@H](NC(=NC#N)Nc1ccc(C)nc1)c1ccccc1 [Compound 8, (R)-N-(6-Methyl-3-pyridyl)-N"-cyano-N'-(1-phenylpropyl)guanidine] | 25 μEq Na^+ /mg/kg | 84.1% | –
CC[C@@H](NC(=NC#N)Nc1cncc(Br)c1)c1ccccc1 [Compound 9, (R)-N-(5-Bromo-3-pyridyl)-N"-cyano-N'-(1-phenylpropyl)guanidine] | 12 μEq Na^+ /mg/kg | 94.6% | –
CC[C@@H](NC(=NC#N)Nc1ccc(NCCF)nc1)c1ccccc1 [Compound 10, (R)-N-[6-(2-Fluoroethylamino)-3-pyridyl]-N"-cyano-N'-(1-phenylpropyl)guanidine] | 34 μEq Na^+ /mg/kg | 72.3% | –
CC[C@@H](NC(=NC#N)Nc1cccnc1C)c1ccccc1 [Compound 11, (R)-N-(2-Methyl-3-pyridyl)-N"-cyano-N'-(1-phenylpropyl)guanidine] | 25 μEq Na^+ /mg/kg | 91.6% | –
CC[C@@H](NC(=NC#N)Nc1cncc(N)c1)c1ccccc1 [Compound 12, (R)-N-(5-Amino-3-pyridyl)-N"-cyano-N'-(1-phenylpropyl)guanidine] | 26 μEq Na^+ /mg/kg | 85.8% | –
CC(=O)Nc1cncc(NC(=NC#N)NC2(c3ccccc3)CCC2)c1 [Compound 13, N-(5-Acetylamino-3-pyridyl)-N"-cyano-N'-(1-phenylcyclobutyl)guanidine] | 15 μEq Na^+ /mg/kg | 6.4% | –
CC[C@@H](NC(=NC#N)Nc1ccc(NS(C)(=O)=O)nc1)c1ccccc1 [Compound 14, (R)-N-(6-Methanesulfonylamino-3-pyridyl)-N"-cyano-N'-(1-phenylpropyl)guanidine] | 21 μEq Na^+ /mg/kg | – | inhibition at 30 µM ([1]; conc. 30 μM): 2.3%
CC(N/C(=N\C#N)Nc1ccncc1)C(C)(C)C (centres unmarked) [pinacidil] | – | – | K^+ channel dependent vasodilation by pinacidil [3]: maximal K^+ channel dependent vasodilation
